Reference: patent US20120171126A1, “NOVEL [3,2-c] HETEROARYL STEROIDS AS GLUCOCORTICOID RECEPTOR AGONISTS COMPOSITIONS AND USES THEREOF” (priority 2009, published 2012)

Tested on: IL-8
Assay: Glucocorticoid transrepression assay, IL-8 inhibition (TR)
Assay type: cell-based
Conditions: Homo sapiens; Table 1; NCl-H292 cells, TNFα 10 ng/ml
Procedure, shortened: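 Human lung epithelial NCI-H292 cells at 75-90% confluence were pretreated with steroid or antagonist for 1 h at 37 °C. TNFα was then added at 10 ng/ml final and cells were incubated overnight, with 10 μM dexamethasone as the maximum-inhibition control. Secreted IL-6 and IL-8 were measured in the medium by MSD multi-spot immunoassay.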

Q: With Cc1ccnc(SCC(=O)[C@@]2(O)CCC3C4CCC5=Cc6c(cnn6C6CCCCC6)CC5(C)C4[C@@H](O)CC32C)n1 (stereo partly drawn) [Compound 131] as the compound, how does the IC50 read?
A: Its IC50 is 0.06 to 20 nM.

Q: With CC12Cc3cnn(C4CCOCC4)c3C=C1CCC1C2[C@@H](O)CC2(C)C1CC[C@]2(O)C(=O)CSc1nc2cccnc2s1 (stereo partly drawn) [Compound 71] as the compound, how does the IC50 read?
A: Its IC50 is 66 to 400 nM.

Q: For CC12Cc3cnn(CCC#N)c3C=C1CCC1C2[C@@H](O)CC2(C)C1CC[C@]2(O)C(=O)CSc1ccccn1 (stereo partly drawn) [Compound 60], which IC50 is on record?
A: The IC50 was 66 to 400 nM.

Q: For CC12Cc3cnn(-c4ccc(F)cc4)c3C=C1CCC1C2[C@@H](O)CC2(C)C1CC[C@]2(O)C(=O)CSc1nc2ccccc2s1 (stereo partly drawn) [Compound 1], which IC50 is on record?
A: Its IC50 is 0.06 to 20 nM.

Q: For CC12Cc3cnn(C4CCOCC4)c3C=C1CCC1C2[C@@H](O)CC2(C)C1CC[C@]2(O)C(=O)CSc1ccc2ccccc2n1 (stereo partly drawn) [Compound 74], which IC50 is on record?
A: The IC50 was 66 to 400 nM.

Q: With CC12Cc3cnn(-c4ccc(F)cc4)c3C=C1CCC1C2[C@@H](O)CC2(C)C1CC[C@]2(O)C(=O)CSc1nc2ccc(O)cc2[nH]1 (stereo partly drawn) [Compound 94] as the compound, how does the IC50 read?
A: The IC50 was 0.06 to 20 nM.

Q: Which IC50 does the source give for Cn1ncc2c1C=C1CCC3C([C@@H](O)CC4(C)C3CC[C@]4(O)C(=O)CSc3cnc4ccccc4n3)C1(C)C2 (stereo partly drawn) [Compound 30] here?
A: Its IC50 is 66 to 400 nM.

Same assay, conditions: Homo sapiens; Table 1; NCl-H292 cells, TNFα 10 ng/ml; read-out: IL-8 inhibition (TR) Emax % inhibition

Q: With Cc1ccnc(SCC(=O)[C@@]2(O)CCC3C4CCC5=Cc6c(cnn6C6CCCCC6)CC5(C)C4[C@@H](O)CC32C)n1 (stereo partly drawn) [Compound 131] as the compound, how does the Emax read?
A: The Emax was greater than 80%.

Q: Which Emax does the source give for CC12Cc3cnn(C4CCOCC4)c3C=C1CCC1C2[C@@H](O)CC2(C)C1CC[C@]2(O)C(=O)CSc1nc2cccnc2s1 (stereo partly drawn) [Compound 71] here?
A: Its Emax is greater than 80%.

Q: For CC12Cc3cnn(CCC#N)c3C=C1CCC1C2[C@@H](O)CC2(C)C1CC[C@]2(O)C(=O)CSc1ccccn1 (stereo partly drawn) [Compound 60], which Emax is on record?
A: Its Emax is less than 60%.

Q: With CC12Cc3cnn(-c4ccc(F)cc4)c3C=C1CCC1C2[C@@H](O)CC2(C)C1CC[C@]2(O)C(=O)CSc1nc2ccccc2s1 (stereo partly drawn) [Compound 1] as the compound, how does the Emax read?
A: Its Emax is greater than 80%.

Q: Which Emax does the source give for CC12Cc3cnn(C4CCOCC4)c3C=C1CCC1C2[C@@H](O)CC2(C)C1CC[C@]2(O)C(=O)CSc1ccc2ccccc2n1 (stereo partly drawn) [Compound 74] here?
A: Its Emax is 70 to 80%.

Q: With CC12Cc3cnn(CCC#N)c3C=C1CCC1C2[C@@H](O)CC2(C)C1CC[C@]2(O)C(=O)CSc1ccc2ccccc2n1 (stereo partly drawn) [Compound 51] as the compound, how does the Emax read?
A: The Emax was less than 60%.

Q: With CC12Cc3cnn(-c4ccc(F)cc4)c3C=C1CCC1C2[C@@H](O)CC2(C)C1CC[C@]2(O)C(=O)CSc1nc2ccc(O)cc2[nH]1 (stereo partly drawn) [Compound 94] as the compound, how does the Emax read?
A: The Emax was greater than 80%.

Q: With Cn1ncc2c1C=C1CCC3C([C@@H](O)CC4(C)C3CC[C@]4(O)C(=O)CSc3cnc4ccccc4n3)C1(C)C2 (stereo partly drawn) [Compound 30] as the compound, how does the Emax read?
A: Its Emax is 60 to 70%.

Same assay, conditions: Homo sapiens; text value for compound 4-1; only a % value printed; read-out: IL-8 inhibition(TR) IC50/Emax(nM, % inhibition)

Q: For C[C@]12Cc3cnoc3C=C1CCC1C2[C@@H](O)C[C@@]2(C)C1CC[C@]2(O)C(=O)Nc1nc2cccnc2s1 (stereo partly drawn) [Compound 4-1], which Emax is on record?
A: The Emax was 23%.

Tested on: human glucocorticoid response element coupled with a luciferase reporter gene
Assay: GRE-transactivation assay (HeLa-GRE luciferase, TA)
Assay type: cell-based
Conditions: HeLa cells, 24 hours, luciferase, read-out: EMAX value, GRE-transactivation assay
Procedure: HeLa cells were stably transfected with a human glucocorticoid response element coupled with a luciferase reporter gene. Cells were plated in 96 well Packard View Plates (black sides/ clear bottom) at 20 K cells/0.2 ml complete medium. Plates were incubated overnight at 37°/5% CO2. Medium was aspirated and replaced with 150 μl medium containing 5% charcoal-treated FBS and cells incubated overnight again. Test compounds were prepared in 5% charcoal-treated FBS medium. Medium was aspirated from plates and replaced with 100 μl of test compounds or controls. Plates were returned to incubator for exactly 24 hours. To measure induced luciferase, 100 μl of Steady-Glo luciferase assay substrate (Promega) was added to each well. Plates were sealed and mixed on a plate shaker for 5 minutes. Plate bottom opaque seals were added and the plates were allowed to stand for 60 minutes. Luminescence was measured on a Top-Count instrument (Perkin-Elmer).

Q: Which Emax does the source give for CC12Cc3cnn(-c4ccc(F)cc4)c3C=C1CCC1C2[C@@H](O)CC2(C)C1CC[C@]2(O)C(=O)Cn1cc(-c2ccccc2)cn1 (stereo partly drawn) [Compound 1] here?
A: Its Emax is 69%.

Q: For Cc1ccnc(SCC(=O)[C@@]2(O)CCC3C4CCC5=Cc6c(cnn6C6CCCCC6)CC5(C)C4[C@@H](O)CC32C)n1 (stereo partly drawn) [Compound 131], which Emax is on record?
A: Its Emax is 83%.

Q: For CC12Cc3cnn(C4CCOCC4)c3C=C1CCC1C2[C@@H](O)CC2(C)C1CC[C@]2(O)C(=O)CSc1nc2cccnc2s1 (stereo partly drawn) [Compound 71], which Emax is on record?
A: The Emax was 85%.

Q: For CC12Cc3cnn(CCC#N)c3C=C1CCC1C2[C@@H](O)CC2(C)C1CC[C@]2(O)C(=O)CSc1ccccn1 (stereo partly drawn) [Compound 60], which Emax is on record?
A: The Emax was 15%.

Q: With CC12Cc3cnn(-c4ccc(F)cc4)c3C=C1CCC1C2[C@@H](O)CC2(C)C1CC[C@]2(O)C(=O)CSc1nc2ccccc2s1 (stereo partly drawn) [Compound 1] as the compound, how does the Emax read?
A: Its Emax is 71%.

Q: With C[C@@H]1C[C@H]2[C@@H]3CCC4=CC(=O)C=C[C@]4(C)[C@@]3(F)[C@@H](O)C[C@]2(C)[C@@]1(O)C(=O)CO [dexamethasone, reference compound] as the compound, how does the Emax read?
A: The Emax was 100%.

Q: For CCC(=O)O[C@]1(C(=O)SCF)[C@H](C)C[C@H]2[C@@H]3C[C@H](F)C4=CC(=O)C=C[C@]4(C)[C@@]3(F)[C@@H](O)C[C@@]21C [fluticasone propionate, reference compound], which Emax is on record?
A: The Emax was 99%.

Q: For CC12Cc3cnn(C4CCOCC4)c3C=C1CCC1C2[C@@H](O)CC2(C)C1CC[C@]2(O)C(=O)CSc1ccc2ccccc2n1 (stereo partly drawn) [Compound 74], which Emax is on record?
A: The Emax was 56%.

Same assay, conditions: text value for compound 4-1, only a % value printed, read-out: H Hela-GRE luciferase(TA) IC50/Emax(nM, % inhibition)

Q: For C[C@]12Cc3cnoc3C=C1CCC1C2[C@@H](O)C[C@@]2(C)C1CC[C@]2(O)C(=O)Nc1nc2cccnc2s1 (stereo partly drawn) [Compound 4-1], which Emax is on record?
A: Its Emax is 0%.

Tested on: not given
Assay: not given
Conditions: symptoms associated with chronic nasal congestion; cited from earlier work

Q: With Oc1cccc(Nc2ncc(F)c(Nc3cccc(O)c3)n2)c1 [Compound R112] as the compound, how does the “absolute difference over placebo” value read?
A: The value was 9%.

Q: What about the “improvement from baseline measurements (prior to drug initiation)” value of the same compound?
A: Its value is “up to 38%”.

Q: What about the “relative improvement over placebo” value of the same compound?
A: Its value is “greater than 20%”.

Tested on: IL-6
Assay: Glucocorticoid transrepression assay, IL-6 inhibition (TR)
Assay type: cell-based
Conditions: Homo sapiens; Table 4; NCl-H292 cells, TNFα 10 ng/ml
Procedure: Human Lung epithelial cell line NCl-H292 cells were dissociated from stock flask using 0.05% trypsin/0.53 mM EDTA. Cells were suspended in complete medium and counted. Cells were plated in 96-well flat-bottom plates at 20K cells /well in 0.2 ml/well. Plates were incubated for 24-48 hours until cells were between 75-90% confluent. Medium was aspirated and replaced with medium containing various concentrations of steroids or antagonists. After 1 hour incubation at 37°, TNFα (10 ng/ml final concentration in 0.2 ml) was added and the cells incubated overnight. Control wells with and without TNF were included on each plate, as well as wells with TNF in addition to a maximum (10 μM) concentration of dexamethasone. The cell culture medium was sampled and IL-6 and IL-8 cytokine production was measured using the MSD Multi-Spot immunoassay.

Q: For C[C@]12Cc3cnn(-c4ccc(F)cc4)c3C=C1CCC1C2[C@@H](O)C[C@@]2(C)C1CC[C@]2(OC(=O)c1ccco1)C(=O)SCc1ccc(-c2ccccn2)cc1 (stereo partly drawn) [Compound 1], which Emax is on record?
A: Its Emax is greater than 80%.

Q: And the IC50?
A: Its IC50 is 0.06 to 20 nM.

Q: Which Emax does the source give for C[C@]12Cc3cnn(-c4ccc(F)cc4)c3C=C1CCC1C2[C@@H](O)C[C@@]2(C)C1CC[C@]2(OC(=O)c1ccco1)C(=O)SCc1nc2ccccc2o1 (stereo partly drawn) [Compound 3] here?
A: Its Emax is greater than 80%.

Q: And the IC50?
A: The IC50 was 0.06 to 20 nM.

Q: Which Emax does the source give for C[C@]12Cc3cnn(-c4ccc(F)cc4)c3C=C1CCC1C2[C@@H](O)C[C@@]2(C)C1CC[C@]2(OC(=O)c1ccco1)C(=O)SCc1cccc(N2CCCC2)n1 (stereo partly drawn) [Compound 4] here?
A: Its Emax is greater than 80%.

Q: And the IC50?
A: Its IC50 is 0.06 to 20 nM.

Q: Which results are given for C[C@]12Cc3cnn(-c4ccc(F)cc4)c3C=C1CCC1C2[C@@H](O)C[C@@]2(C)C1CC[C@]2(OC(=O)c1ccco1)C(=O)SCc1ccc2ccccc2n1 (stereo partly drawn) [Compound 2]?
A: Emax: > 80%; IC50: 0.06 to 20 nM
